Laboratory results published in patent US20230086703A1, “N-(4-(5-chloropyridin-3-yl)phenyl)-2-(2-(cyclopropanesulfonamido)pyrimidin-4-yl) butanamide derivatives and related compounds as human CTPS1 inhibitors for the treatment of proliferative diseases” (Step Pharma S.A.S., priority 2019, published 2023).

Target: T1, human CTPS1 (Homo sapiens, UniProt P17812)
T1 construct: FLAG (with GG linker); His8 (with GG linker); purchased Proteros biostructures GmbH
T1 sequence (P17812 1-591): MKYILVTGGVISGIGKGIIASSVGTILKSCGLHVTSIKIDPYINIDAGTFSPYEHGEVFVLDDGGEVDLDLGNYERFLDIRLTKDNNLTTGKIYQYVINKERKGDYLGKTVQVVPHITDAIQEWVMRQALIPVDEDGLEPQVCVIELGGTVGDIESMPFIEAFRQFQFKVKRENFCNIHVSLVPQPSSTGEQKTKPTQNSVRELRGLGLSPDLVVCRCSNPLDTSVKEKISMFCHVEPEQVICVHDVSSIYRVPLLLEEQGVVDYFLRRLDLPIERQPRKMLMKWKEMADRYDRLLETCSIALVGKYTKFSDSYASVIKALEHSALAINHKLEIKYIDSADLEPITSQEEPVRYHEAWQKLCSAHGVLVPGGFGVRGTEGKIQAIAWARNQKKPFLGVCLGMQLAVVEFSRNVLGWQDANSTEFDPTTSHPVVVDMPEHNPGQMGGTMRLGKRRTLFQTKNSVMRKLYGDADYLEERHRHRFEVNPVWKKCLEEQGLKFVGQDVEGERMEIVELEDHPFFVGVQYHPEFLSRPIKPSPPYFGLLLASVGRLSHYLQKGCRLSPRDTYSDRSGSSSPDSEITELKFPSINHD
Assay: RapidFire/MS-based enzyme selectivity assay (human CTPS1 versus CTPS2), CTPS1 isoform
Assay type: biochemical
How it was run: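 Full-length C-terminal FLAG-His-tagged CTPS1 (1-591) was preincubated 10 min at 25 °C with compound in HEPES pH 8.0 buffer with MgCl2, KCl, DTT and Tween-20. Reactions were started with a 2× mix of ATP 0.3 mM, UTP 0.2 mM, GTP 0.07 mM and L-glutamine 0.1 mM, and run in the linear phase at 25 °C. IC50 comes from the RapidFire-MS ratio of CTP to 13C9-15N3-CTP.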

[1] = RapidFire/MS IC50 values of CTPS1 and CTPS2, Table 15
[2] = Table 16, human CTPS1 over human CTPS2, RapidFire/MS IC50 values

Row | SMILES | Selectivity (fold selectivity between CTPS1 and CTPS2) [1] | Selectivity (fold selectivity between CTPS1 and CTPS2) [2]
1 | CCOc1cncc(-c2ccc(NC(=O)C(CC)c3ccnc(NS(=O)(=O)C4CC4)n3)c(F)c2)n1 (stereo not drawn) [P96, 2-(2-(cyclopropanesulfonamido)pyrimidin-4-yl)-N-(4-(6-ethoxypyrazin-2-yl)-2-fluorophenyl)butanamide] | + (2-30 fold (+)) | 
2 | CCOc1cncc(-c2ccc(NC(=O)C(C)(CC)c3ccnc(NS(=O)(=O)C4CC4)n3)nc2)n1 (stereo not drawn) [P163, 2-(2-(cyclopropanesulfonamido)pyrimidin-4-yl)-N-(5-(6-ethoxypyrazin-2-yl)pyridin-2-yl)-2-methylbutanamide] | +++ (>60 fold (+++)) | 
3 | CCC(NC(=O)c1ccc(-c2cncc(OC(C)C)n2)cc1F)c1csc(NS(=O)(=O)C2CC2)n1 (racemic) [R64, N-(1-(2-(cyclopropanesulfonamido)thiazol-4-yl)propyl)-2-fluoro-4-(6-isopropoxypyrazin-2-yl)benzamide] |  | ++ (>30-60 fold (++))
4 | CCOc1cncc(-c2ccc(NC(=O)C3(c4ccnc(NS(=O)(=O)C5CC5)n4)CCCC3)nc2)n1 [P136, 1-(2-(cyclopropanesulfonamido)pyrimidin-4-yl)-N-(5-(6-ethoxypyrazin-2-yl)pyridin-2-yl)cyclopentane-1-carboxamide] | +++ (>60 fold (+++)) | 
5 | COCCC(NC(=O)c1ccc(-c2cncc(C(F)(F)F)n2)cc1F)c1csc(NS(=O)(=O)C2CC2)n1 (stereo not drawn) [R87, N-(1-(2-(cyclopropanesulfon-amido)thiazol-4-yl)-3-methoxypropyl)-2-fluoro-4-(6-(trifluoromethyl)pyrazin-2-yl)benzamide] |  | ++ (>30-60 fold (++))
6 | CCOc1cncc(-c2ccc(NC(=O)C(C)(C)c3ccnc(NS(=O)(=O)CC)n3)cc2)n1 [P74, N-(4-(6-ethoxypyrazin-2-yl)phenyl)-2-(2-(ethylsulfonamido)pyrimidin-4-yl)-2-methylpropanamide] | ++ (>30-60 fold (++)) | 
7 | CCc1cncc(-c2ccc(C(=O)NC(C)(C)c3csc(NS(=O)(=O)C4CC4)n3)c(F)c2)n1 [R41, N-(2-(2-(cyclopropanesulfon-amido)thiazol-4-yl)propan-2-yl)-4-(6-ethylpyrazin-2-yl)-2-fluorobenzamide] |  | ++ (>30-60 fold (++))
8 | CCC(C(=O)Nc1ccc(-c2cncc(OCC(F)(F)F)n2)cc1F)c1ccnc(NS(=O)(=O)C2CC2)n1 (stereo not drawn) [P98, 2-(2-(cyclopropanesulfonamido)pyrimidin-4-yl)-N-(2-fluoro-4-(6-(2,2,2-trifluoroethoxy)pyrazin-2-yl)phenyl)butanamide] | +++ (>60 fold (+++)) | 
9 | O=C(Cc1ccnc(NS(=O)(=O)C2CC2)n1)Nc1ccc(-c2cccnc2)cc1 [P16, 2-(2-(cyclopropanesulfonamido)pyrimidin-4-yl)-N-(4-(pyridin-3-yl)phenyl)acetamide] | ++ (>30-60 fold (++)) | 
10 | CCOc1cncc(-c2ccc(NC(=O)C(CC)c3ccnc(NS(=O)(=O)C4CC4)n3)nc2)n1 (stereo not drawn) [P88, 2-(2-(cyclopropanesulfonamido)pyrimidin-4-yl)-N-(5-(6-ethoxypyrazin-2-yl)pyridin-2-yl)butanamide] | +++ (>60 fold (+++)) | 
11 | CC(C)(NC(=O)c1ccc(-c2cncc(Cl)n2)cc1)c1csc(NS(=O)(=O)C2CC2)n1 [R52, 4-(6-chloropyrazin-2-yl)-N-(2-(2-(cyclopropanesulfon-amido)thiazol-4-yl)propan-2-yl)benzamide] |  | +++ (>60 fold (+++))
12 | CCOc1cncc(-c2ccc(C(=O)NC(CC)c3csc(NS(=O)(=O)C4CC4)n3)c(F)c2)n1 (single isomer, unassigned) [R70, N-(1-(2-(cyclopropanesulfon-amido)thiazol-4-yl)propyl)-4-(6-ethoxypyrazin-2-yl)-2-fluorobenzamide] |  | +++ (>60 fold (+++))
13 | CCOc1cncc(-c2ccc(NC(=O)C(C)(C)c3ccnc(NS(=O)(=O)C4CC4)n3)c(C#N)c2)n1 [P34, N-(2-cyano-4-(6-ethoxypyrazin-2-yl)phenyl)-2-(2-(cyclopropanesulfonamido)pyrimidin-4-yl)-2-methylpropanamide] | + (2-30 fold (+)) | 
14 | CC(C)(NC(=O)c1ccc(-c2cncc(C(F)(F)F)n2)cc1)c1cncc(NS(=O)(=O)C2CC2)n1 [P222, N-(2-(6-(cyclopropanesulfonamido)pyrazin-2-yl)propan-2-yl)-4-(6-(trifluoromethyl)pyrazin-2-yl)benzamide] | + (2-30 fold (+)) | 
15 | CCOc1cncc(-c2ccc(NC(=O)C(CC)c3cccc(NS(=O)(=O)C4CC4)n3)nc2)n1 (stereo not drawn) [P188, 2-(6-(cyclopropanesulfonamido)pyridin-2-yl)-N-(5-(6-ethoxypyrazin-2-yl)pyridin-2-yl)butanamide] | ++ (>30-60 fold (++)) | 
16 | Cc1cc(-c2cncc(C(F)(F)F)n2)ccc1C(=O)NC1(c2csc(NS(=O)(=O)C3CC3)n2)CC1 [R83, N-(1-(2-(cyclopropanesulfon-amido)thiazol-4-yl)cyclopropyl)-2-methyl-4-(6-(trifluoromethyl)pyrazin-2-yl)benzamide] |  | +++ (>60 fold (+++))
17 | COc1cc(-c2cncc(C(F)(F)F)n2)ccc1C(=O)NC(C)(C)c1csc(NS(=O)(=O)C2CC2)n1 [R48, N-(2-(2-(cyclopropanesulfonamido)thiazol-4-yl)propan-2-yl)-2-methoxy-4-(6-(trifluoromethyl)pyrazin-2-yl)benzamide] |  | ++ (>30-60 fold (++))
18 | CCOc1cncc(-c2ccc(C(=O)NCc3ccnc(NS(=O)(=O)C4CC4)n3)cc2)n1 [P118, N-((2-(cyclopropanesulfonamido)pyrimidin-4-yl)methyl)-4-(6-ethoxypyrazin-2-yl)benzamide] | +++ (>60 fold (+++)) | 
19 | CCOc1cncc(-c2ccc(C(=O)NC(C)(C)c3csc(NS(=O)(=O)C4CC4)n3)c(OC)c2)n1 [R7, N-(2-(2-(cyclopropanesulfonamido)thiazol-4-yl)propan-2-yl)-4-(6-ethoxypyrazin-2-yl)-2-methoxybenzamide] |  | ++ (>30-60 fold (++))
20 | CCOc1cncc(-c2ccc(NC(=O)C(OC)c3ccnc(NS(=O)(=O)C4CC4)n3)cc2)n1 (stereo not drawn) [P164, 2-(2-(cyclopropanesulfonamido)pyrimidin-4-yl)-N-(4-(6-ethoxypyrazin-2-yl)phenyl)-2-methoxyacetamide] | + (2-30 fold (+)) | 
21 | CCOc1cncc(-c2ccc(NC(=O)C(C)(OC)c3cncc(NS(=O)(=O)C4CC4)n3)nc2)n1 (single isomer, unassigned) [P205a, 2-(6-(cyclopropanesulfonamido)pyrazin-2-yl)-N-(5-(6-ethoxypyrazin-2-yl)pyridin-2-yl)-2-methoxypropanamide] | +++ (>60 fold (+++)) | 
22 | CCOc1cncc(-c2ccc(C(=O)NC(C)(C)c3nc(NS(=O)(=O)C4CC4)sc3C)c(F)c2)n1 [R74, N-(2-(2-(cyclopropanesulfon-amido)-5-methylthiazol-4-yl)propan-2-yl)-4-(6-ethoxypyrazin-2-yl)-2-fluorobenzamide] |  | ++ (>30-60 fold (++))
23 | CCC(NC(=O)c1ccc(-c2cncc(F)c2)cc1)c1csc(NS(=O)(=O)C2CC2)n1 (single isomer, unassigned) [R68, N-(1-(2-(cyclopropanesulfon-amido)thiazol-4-yl)propyl)-4-(5-fluoropyridin-3-yl)benzamide] |  | ++ (>30-60 fold (++))
24 | Cc1sc(NS(=O)(=O)C2CC2)nc1C(C)(C)NC(=O)c1ccc(-c2cncc(C(F)(F)F)n2)cc1 [R78, N-(2-(2-(cyclopropanesulfon-amido)-5-methylthiazol-4-yl)propan-2-yl)-4-(6-(trifluoromethyl)pyrazin-2-yl)benzamide] |  | ++ (>30-60 fold (++))
25 | CCOc1cncc(-c2ccc(NC(=O)C(C)(CCOC)c3cncc(NS(=O)(=O)C4CC4)n3)nc2)n1 (stereo not drawn) [P198, 2-(6-(cyclopropanesulfonamido)pyrazin-2-yl)-N-(5-(6-ethoxypyrazin-2-yl)pyridin-2-yl)-4-methoxy-2-methylbutanamide] | +++ (>60 fold (+++)) | 
26 | CCOc1cncc(-c2ccc(NC(=O)C3(c4ccnc(NS(=O)(=O)C5CC5)n4)CC3)cc2)n1 [P83, 1-(2-(cyclopropanesulfonamido)pyrimidin-4-yl)-N-(4-(6-ethoxypyrazin-2-yl)phenyl)cyclopropanecarboxamide] | +++ (>60 fold (+++)) | 
27 | CCOc1cncc(-c2ccc(NC(=O)C(CC)c3cccc(NS(=O)(=O)C4CC4)n3)cc2)n1 (stereo not drawn) [P191, 2-(6-(cyclopropanesulfonamido)pyridin-2-yl)-N-(4-(6-ethoxypyrazin-2-yl)phenyl)butanamide] | ++ (>30-60 fold (++)) | 
